Reference: PubChem BioAssay (NCI)
“And” between values parts separate entries of the source, which are not always exact repeats. Identical values can stand only once.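 Where inhibition never reached the appropriate level, the endpoint shown equals the highest concentration tested. Otherwise, values were interpolated linearly from a five-concentration, 48-hour dose response in 96-well plates. The concentration for 50% growth inhibition is given as GI50. TGI: total growth inhibition.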

How the values were obtained:
Test in all cases: DTP human tumour cell line panel, 48 h
[1] = tested on: EKVX NSCLC
[2] = tested on: IGROV1 ovarian
[3] = tested on: NCI-H23 lung
[4] = tested on: NCI-H522 lung
[5] = tested on: OVCAR-4 ovarian
[6] = tested on: SF-295 CNS
[7] = tested on: SK-MEL-28 melanoma
[8] = tested on: SNB-75 CNS
[9] = tested on: TK-10 renal
[10] = tested on: U251 CNS

| Structure (SMILES) | GI50 [1] [µM] | TGI [1] [µM] | GI50 [2] [µM] | TGI [2] [µM] | GI50 [3] [µM] | TGI [3] | GI50 [4] [µM] | TGI [4] [µM] | GI50 [5] [µM] | TGI [5] [µM] | GI50 [6] [µM] | TGI [6] | GI50 [7] [µM] | TGI [7] [µM] | GI50 [8] [µM] | TGI [8] [µM] | GI50 [9] [µM] | TGI [9] [µM] | GI50 [10] [µM] | TGI [10] [µM] |
| --- | --- | --- | --- | --- | --- | --- | --- | --- | --- | --- | --- | --- | --- | --- | --- | --- | --- | --- | --- | --- |
| COc1ccc2c(c1)c(-c1ccc(-c3cn(C)c4ccc(OC)cc34)o1)cn2C | 5.48 | 23.4 | 29.6 | > 100 | 17.3 | > 100 µM | 3.42 | 10 | 2.06 | 4.08 | 13.4 | 62.6 µM | 14 | 80.1 | 13.6 | 53.7 | 11 | > 100 | 3.66 | 13.4 |
| CC(C)c1cc(C(=O)[O-])c(O)c(C(C)C)c1.CC(C)c1cc(C(=O)[O-])c(O)c(C(C)C)c1.CC(C)c1cc(C(=O)[O-])c(O)c(C(C)C)c1.CC(C)c1cc(C(=O)[O-])c(O)c(C(C)C)c1.CC(C)c1cc(C(=O)[O-])c(O)c(C(C)C)c1.CC(C)c1cc(C(=O)[O-])c(O)c(C(C)C)c1.[Cu+2].[Mn+2].[Mn+2] | 23.3 | > 100 | 15.2 | 38.4 | 20.1 | 45.6 µM | 10.9 | 25.1 | 16.1 | 47.8 | 18.1 | 49.5 µM | 20.5 | 45.3 | 24.8 | 68.7 | 39.5 | 91.7 | 9.43 | 22.7 |
| COc1c(N2CCN(CN3C(=O)C(=O)c4ccccc43)C(C)C2)c(F)cc2c(=O)c(C(=O)O)cn(C3CC3)c12 (stereo unspecified) | > 100 | > 100 | > 100 | > 100 | > 100 | > 100 µM | > 100 | > 100 | > 100 | > 100 | > 100 | > 100 µM | > 100 | > 100 | > 100 | > 100 | 6.85 | 68.7 | > 100 | > 100 |
| COc1cc2ccc3c4cc(OC)c(OC(C)C)cc4c[n+](C)c3c2cc1OC | – | > 100 | – | > 100 | – | > 100 µM | – | 70.1 | – | > 100 | – | > 100 µM | – | > 100 | – | > 100 | – | > 100 | – | > 100 |
| O=C1CCC(N2C(=O)c3cccc(NCCOCCOCCNC(=O)c4cc5c(o4)C(=O)c4ccccc4C5=O)c3C2=O)C(=O)N1 (stereo unspecified) | 2.62 | 8.39 | 1.87 | 4.29 | 0.352 | 1.71 µM | 1.71 | 4.38 | 1.29 | 2.57 | 1.68 | 3.08 µM | 1.92 | 3.9 | 2.47 | 4.16 | 3.81 | 9.08 | 1.72 | 3.25 |
| CC(C)C1NC(=O)[C@H](C)OC(=O)[C@@H](C(C)C)NC(=O)[C@@H](C)OC(=O)C(C(C)C)NC(=O)[C@H](C)OC1=O (stereo partly specified) | – | > 100 | – | > 100 | – | > 100 µM | – | > 100 | – | > 100 | – | > 100 µM | – | > 100 | – | > 100 | – | > 100 | – | > 100 |
| CCC1(N)C(=O)OCc2c1cc1n(c2=O)Cc2cc3ccccc3nc2-1 (stereo unspecified) | 20.7 | > 100 | 15.6 | > 100 | – | 38.2 µM and 54.4 µM | 8.51 | > 100 | 38.2 | > 100 | 3.45 | 50.2 µM and > 100 µM | 41.7 | > 100 | – | > 78.9 | 51 | > 100 | 4.9 | > 100 |
| CC(C)(C)C1CCC(=O)C(C(O)CC2CC(=O)N(c3ccccc3)C(=O)C2)C1 (stereo unspecified) | – | > 100 | – | > 100 | – | > 100 µM | – | > 100 | – | > 100 | – | > 100 µM | – | > 100 | – | > 100 | – | > 100 | – | > 100 |
| COC(=O)CCCNC(=O)C(=O)c1c(O)c(O)c(C(C)C)c2cc(C)c(-c3c(C)cc4c(C(C)C)c(O)c(O)c(C(=O)C(=O)NCCCC(=O)OC)c4c3O)c(O)c12 | 0.317 | 3.79 | 0.499 | 13 | 0.363 | 6.03 µM | 0.379 | 1.9 | 0.23 | 27 | 0.25 | 5.22 µM | 1.1 | 6.92 | 1.43 | 19.1 | 0.34 | 2.73 | 0.298 | 2.31 |
| COCC(=O)NC/C=C/c1ccc2ncnc(Nc3ccc(Oc4ccc(C)nc4)c(C)c3)c2c1 | 4.16 | 48.7 | 15.9 | > 89.2 | 17.4 | 55.4 µM | 3.4 | 25.8 | 4.83 | 31.1 | 12.5 | 38.1 µM | 12.9 | 30.6 | 12.5 | 27.2 | 7.52 | 53.9 | 13.2 | 31.9 |
| O=C(Nc1ccc(N2CCNCC2)cn1)c1[nH]ncc1Nc1ncnc2sccc12 | 2.91 | 13.5 | 4.27 | 24.6 | 2.02 | 4.75 µM | 1.87 | 4.36 | 1.69 | 3.63 | 11.9 | 28.9 µM | 1.95 | 3.83 | 4.89 | 21.2 | 3.62 | 14.8 | 1.62 | 3.35 |
| Cn1cc2ccccc2c1-c1nc(F)nc(Nc2ccc(N)cc2)n1 | – | 60.4 | – | 28.5 | – | 29.3 µM | – | 28.9 | – | 64.3 | – | 50.4 µM | – | 30.6 | – | 42.9 | – | > 100 | – | 26.4 |
| C[C@@]1(O)CCC[C@H]1n1c(=O)c(C(F)F)cc2cnc(NC3CCN(S(C)(=O)=O)CC3)nc21 | 1.75 | 5.92 | 1.38 | 43.7 | 1.43 | 6.69 µM | 2.66 | 15.3 | 1.76 | > 100 | 1.83 | 16.2 µM | 2.06 | 10.9 | 0.223 | 2.38 | 1.21 | > 100 | 1.67 | > 100 |
| CCOc1ccc(N=Cc2ccc3ccccc3n2)cc1 | – | > 100 | – | > 100 | – | > 100 µM | – | > 100 | – | > 100 | – | > 100 µM | – | > 100 | – | > 86.3 | – | > 100 | – | > 100 |
| CC(C)Cc1ccc(C(C)/C=C2\CCC(CN3CCCCC3)C2=O)cc1 (stereo unspecified) | – | 21.1 | – | 9.05 | – | 20.8 µM | – | 2.9 | – | 14.2 | – | 26.5 µM | – | 11 | – | 33.7 | – | 8.95 | – | 4.94 |
| COc1ccccc1N1CCN(CCCOc2ccc(C(=O)/C=C3/C(=O)Nc4ccccc43)cc2)CC1 | 7.34 | 41.2 | 12.1 | 37.6 | 6.19 | 38.6 µM | 11.9 | 34.4 | 6.6 | 51.2 | 12.5 | 32.4 µM | 14.6 | 33.4 | 14.9 | 43.9 | 12.3 | > 67.7 | 15.4 | 63.7 |
| O=C(Nc1ccc(-n2ccc3c(NC(=O)c4ccccc4)nccc32)cc1)c1ccc(N2CCOCC2)c(C(F)(F)F)c1 | 3.9 | > 100 | 0.192 | > 42.6 | 1.39 | > 44.8 µM | 0.363 | 18.2 | 7.09 | > 60.8 | 0.0621 | 1.7 µM | 0.275 | > 47.4 | 0.518 | 13.9 | 0.449 | 26.1 | 0.0441 | 8.16 |
| C[C@@H]1OC(=O)NN=C1c1ccc(-c2ccc(F)cc2)c(C(F)(F)F)c1 | – | 12.4 | 14.2 | 29.9 | 7.17 | 21.2 µM | 2.72 | 14.5 | 6.36 | 20.6 | 5.49 | 19.2 µM | 10.5 | 22.6 | 5 | 20.4 | 1.65 | 19.6 | 10.2 | 23.3 |
| Cc1ccc(-n2c3c(c4c(CN)c(O)ccc42)CCc2ccccc2C3=O)cc1 | 12.4 | 28.5 | 8.18 | 22.8 | 14.1 | 28.5 µM | 9.3 | 23.6 | 20.8 | 46 | 10.2 | 22.5 µM | 23.4 | 69.4 | 18.9 | 39.3 | 13.3 | 26.3 | 17.2 | 32.5 |
| COC(=O)c1ccc(/C=C/S(=O)(=O)c2ccccc2)cc1 | – | > 100 | – | > 100 | – | > 100 µM | – | > 100 | – | > 100 | – | > 100 µM | – | > 100 | – | > 100 | – | > 100 | – | > 100 |
| COc1cc(OC)cc(C(=O)Cc2c(C(=O)c3ccccc3)c3ccccc3n2C(=O)c2ccccc2)c1 | – | > 100 | – | > 100 | – | > 100 µM | – | 45 | – | > 100 | – | 94.9 µM | – | > 100 | – | > 100 | – | 98.3 | – | > 100 |
| COc1ccc(C[C@H]2NC[C@H](O)[C@H]2OC(C)=O)cc1 | – | 0.344 | – | 0.153 | – | 0.52 µM | – | 0.118 | – | 0.194 | – | 0.0641 µM | – | 0.351 | – | 0.0668 | – | 0.397 | – | 2.02 |
| C#CCN(Cc1nc2cc(C(F)(F)F)ccc2nc1-c1ccccc1)c1ccc(F)cc1 | 23.1 | 66.2 | 23.1 | > 100 | > 100 | > 100 µM | 22.4 | > 100 | 33.4 | > 100 | 51.4 | > 100 µM | 44.2 | > 100 | 90.3 | > 100 | 19.2 | 59 | 38 | > 100 |
| CN1CCN(c2ccc(-c3cccc(CN4CCOCC4)c3)cc2NC(=O)c2c[nH]c(=O)cc2C(F)(F)F)CC1 | 69.7 | > 100 | 60.7 | > 100 | > 100 | > 100 µM | 16.7 | 39.5 | 55.9 | > 100 | 33.1 | > 100 µM | 37.1 | > 100 | 13.6 | 99.8 | 68.7 | > 100 | 23.6 | > 100 |
| CCOC(=O)C(=O)C(/C(=N/N(C)C)C(=O)Nc1ccc(C)cc1C)c1nc2ccccc2[nH]c1=O (stereo unspecified) | – | > 100 | – | > 100 | – | > 100 µM | – | > 100 | – | > 100 | – | > 100 µM | – | > 100 | – | > 100 | – | > 100 | – | > 100 |
| O=C1c2ccccc2-c2c1c1ccc([N+](=O)[O-])cc1c(=O)n2CCCn1ccnc1 | 6.16 | > 21.8 | 0.696 | 2.71 | 0.119 | 0.292 µM | 1.08 | 5.68 | 0.943 | 13.2 | 0.306 | 2.29 µM | 0.352 | 10.8 | – | 0.862 | 1.16 | 9.31 | 0.157 | 0.69 |
| Cc1ccc2c(c1)-c1oc(=O)c(-c3cc4ccccc4oc3=O)cc1C(O)O2 (stereo unspecified) | 11.8 | 25.7 | 17.4 | 52.1 | 23.5 | 45.8 µM | 19.4 | 48.1 | 36.3 | > 100 | 16.3 | 38.2 µM | 30.2 | 75.2 | 15.6 | 47 | 16.3 | 34.9 | 13.2 | 26.6 |
